We go through 3 compounds from PMC9319270, “Combination of Six Individual Derivatives of the Pom-1 Antibiofilm Peptide Doubles Their Efficacy against Invasive and Multi-Resistant Clinical Isolates of the Pathogenic Yeast Candida albicans” (Pharmaceutics, 2022).

For series [1], the system named is invasive C. albicans clinical isolates. Format: cell-based, Candida albicans. To be noted: 20 biofilm-forming isolates. The procedure: The antifungal effect of Pom-1A to Pom-1F on Candida spp. biofilm formation can be determined following the Clinical and Laboratory Standard Institute guidelines (M27-A3). For this, 2.5 × 10^3 yeast cells were incubated in 200 µL of RPMI-1640 medium supplemented with L-glutamine, fluconazole, amphotericin B, and Pom-1A to Pom-1F. Incubation was performed on flat-bottomed polystyrene microplates with 96 wells (Sarstedt AG & Co. KG, Nümbrecht, Germany) for 24 h at 37 °C without shaking. The subsequent treatment with crystal violet was originally developed by George O’Toole for bacteria and adapted to Candida biofilms. For this purpose, the planktonic phase was removed, and the wells were washed twice with 200 µL of demineralized water. The remaining biofilm cells were treated with 200 µL of 0.1% (w/v) crystal violet solution for 15 min. After removing the solution, they were washed again twice with 200 µL demineralized water, and the microtiter plates were dried for at least 24 h at 25 °C. The stain was dissolved with 200 µL of 30% acetic acid and transferred to a new plate after 15 min. The absorbance at 560 nm was measured using a Tecan Infinite F200 microplate reader (Tecan Group Ltd., Männedorf, Switzerland). The resulting data were evaluated against the untreated controls so that the efficacy of the agents could be determined.

For series [2], the system named is adenocarcinomic human alveolar basal epithelial cells A549. It is filed as cell-based. On the procedure:
(§1) For the experiments, adenocarcinomic human alveolar basal epithelial cells A549 [69] and human dermal fibroblasts (HDFs) were used. Cultivation was performed in DMEM with FBS (10% (w/v), 15% (w/v)), MEM NEAAs (1% (w/v)), and penicillin–streptomycin (100 U*mL^−1, 1% (w/v)) at 37 °C in an incubator containing 5% CO2. A resazurin assay was used to detect the viability of the cells. Therefore, 2 × 10^4 cells per well of a 96-well plate were incubated in 200 µL DMEM with additives at 37 °C and 5% CO2. The medium was removed, and 100 µL of the medium and 100 µL of a peptide solution (2.5 µg/mL, 25 µg/mL) were added. After incubation for 24 h at 37 °C and 5% CO2, 20 µL of a resazurin solution (0.15 mg/mL) were added into each well, and the cells were incubated again for 24 h at 37 °C and 5% CO2. Fluorescence measurement (excitation wavelength—535 nm, emission wavelength—595 nm) of the resulting resorufin was then performed using a Tecan Infinite F200 microplate reader (Tecan Group Ltd., Männedorf, Switzerland).

Series [3] concerns human dermal fibroblasts (HDFs). It is filed as cell-based. The procedure:
as §1

Where two headings read alike, the source gives them in different places.

`OC(Cn1cncn1)(Cn1cncn1)c1ccc(F)cc1F` [fluconazole, Fluconazole]: the “number of resistant isolates (biofilm detectable, inhibition lower than 100%)” value in series [1] (fluconazole 8 µg/mL (w/v)) is “four”.

Triton X-100: the “cell viability, A549” value in series [2] was “zero”. In series [3], the “cell viability, HDF” value is on record as “zero”.

On to `C[C@@H]1[C@H](O)[C@@H](C)/C=C/C=C/C=C/C=C/C=C/C=C/C=C/[C@H](O[C@@H]2O[C@H](C)[C@@H](O)[C@H](N)[C@@H]2O)C[C@@H]2O[C@](O)(C[C@@H](O)C[C@@H](O)[C@H](O)CC[C@@H](O)C[C@@H](O)CC(=O)O[C@H]1C)C[C@H](O)[C@H]2C(=O)O` [amphotericin B], for which, in series [1] (amphotericin B 2 µg/mL (w/v)), the “number of resistant isolates (biofilm detectable, inhibition lower than 100%)” value is recorded as “six”.
